Experimental data taken from US11083725B2 (priority 2014, dated 2021).

System: NHBE cells
Experiment: Biolog metabolic array: substrate use by NHBE cells with or without CA09 infection
Type: cell-based, human
Settings: for Substrate use, 590 nm absorbance normalized to zero hour, 1 hr: Biolog PMM2, 1 hr; for Substrate use, 590 nm absorbance normalized to zero hour, 5 hr: Biolog PMM2, 5 hr; for Substrate use, 590 nm absorbance normalized to zero hour, 7 hr: Biolog PMM2, 7 hr
[1] = Control (uninfected) NHBE cells
[2] = Virus (CA09-infected, MOI 1) NHBE cells
[3] = Virus: CA09-infected NHBE cells, MOI 1, Biolog PMM2
[4] = Virus (CA09-infected NHBE cells, MOI 1)

SMILES	590 nm absorbance normalized to zero hour (substrate use), 1 hr [1]	590 nm absorbance normalized to zero hour (substrate use), 2 hr [1]	590 nm absorbance normalized to zero hour (substrate use), 3 hr [1]	590 nm absorbance normalized to zero hour (substrate use), 4 hr [1]	590 nm absorbance normalized to zero hour (substrate use), 6 hr [1]	590 nm absorbance normalized to zero hour (substrate use), 8 hr [1]	590 nm absorbance normalized to zero hour (substrate use), 9 hr [1]	590 nm absorbance normalized to zero hour (substrate use), 10 hr [1]	590 nm absorbance normalized to zero hour (substrate use), 11 hr [1]	Substrate use, 590 nm absorbance normalized to zero hour, 1 hr [1]	Substrate use, 590 nm absorbance normalized to zero hour, 5 hr [1]	Substrate use, 590 nm absorbance normalized to zero hour, 7 hr [1]	590 nm absorbance normalized to zero hour (substrate use), 1 hr [3]	590 nm absorbance normalized to zero hour (substrate use), 2 hr [3]	590 nm absorbance normalized to zero hour (substrate use), 3 hr [3]	590 nm absorbance normalized to zero hour (substrate use), 4 hr [3]	590 nm absorbance normalized to zero hour (substrate use), 5 hr [3]	590 nm absorbance normalized to zero hour (substrate use), 6 hr [3]	590 nm absorbance normalized to zero hour (substrate use), 7 hr [3]	590 nm absorbance normalized to zero hour (substrate use), 8 hr [3]	further results
O=C(O)CCC(=O)O [Succinic Acid]	1.02	1.06	1.08	1.06	0.39	0.96	0.94	0.87	0.81	1.02	1.04	1.00	1.69	2.01	2.37	2.37	2.54	2.73	2.78	2.85	590 nm absorbance normalized to zero hour (substrate use), 1 hr [2]: 1.69; 590 nm absorbance normalized to zero hour (substrate use), 2 hr [2]: 2.01; 590 nm absorbance normalized to zero hour (substrate use), 3 hr [2]: 2.37; 590 nm absorbance normalized to zero hour (substrate use), 4 hr [2]: 2.37; 590 nm absorbance normalized to zero hour (substrate use), 5 hr [2]: 2.54; 590 nm absorbance normalized to zero hour (substrate use), 6 hr [2]: 2.73; 590 nm absorbance normalized to zero hour (substrate use), 7 hr [2]: 2.78; 590 nm absorbance normalized to zero hour (substrate use), 8 hr [2]: 2.85; 590 nm absorbance normalized to zero hour (substrate use), 9 hr [2]: 3.06; 590 nm absorbance normalized to zero hour (substrate use), 10 hr [2]: 2.98; 590 nm absorbance normalized to zero hour (substrate use), 11 hr [2]: 3.12; 590 nm absorbance normalized to zero hour (substrate use), 9 hr [3]: 3.06; 590 nm absorbance normalized to zero hour (substrate use), 10 hr [3]: 2.98; 590 nm absorbance normalized to zero hour (substrate use), 11 hr [3]: 3.12
O=C(O)CCC(=O)C(=O)O [a-Keto-Glutaric Acid]	1.29	1.54	1.40	1.45	1.98	1.69	1.80	1.93	2.00	1.29	1.52	1.61	0.28	0.37	0.45	0.46	0.51	0.54	0.56	0.58	590 nm absorbance normalized to zero hour (substrate use), 0 hr [1]: 1.00; Substrate use, 590 nm absorbance normalized to zero hour, 0 hr (Control (uninfected) NHBE cells, Biolog PMM2, 0 hr): 1.00; 590 nm absorbance normalized to zero hour (substrate use), 0 hr [4]: 1.00; 590 nm absorbance normalized to zero hour (substrate use), 1 hr [4]: 0.28; 590 nm absorbance normalized to zero hour (substrate use), 2 hr [4]: 0.37; 590 nm absorbance normalized to zero hour (substrate use), 3 hr [4]: 0.45; 590 nm absorbance normalized to zero hour (substrate use), 4 hr [4]: 0.46; 590 nm absorbance normalized to zero hour (substrate use), 5 hr [4]: 0.51; 590 nm absorbance normalized to zero hour (substrate use), 6 hr [4]: 0.54; 590 nm absorbance normalized to zero hour (substrate use), 7 hr [4]: 0.56; 590 nm absorbance normalized to zero hour (substrate use), 8 hr [4]: 0.58; 590 nm absorbance normalized to zero hour (substrate use), 9 hr [4]: 0.64; 590 nm absorbance normalized to zero hour (substrate use), 10 hr [4]: 0.64; 590 nm absorbance normalized to zero hour (substrate use), 11 hr [4]: 0.69; 590 nm absorbance normalized to zero hour (substrate use), 0 hr [3]: 1.00; 590 nm absorbance normalized to zero hour (substrate use), 9 hr [3]: 0.64; 590 nm absorbance normalized to zero hour (substrate use), 10 hr [3]: 0.64; 590 nm absorbance normalized to zero hour (substrate use), 11 hr [3]: 0.69
COC(=O)[C@@H](C)O [Methyl D-Lactate]	1.36	1.52	2.08	2.04	1.34	2.16	2.39	2.41	2.99	1.36	2.26	2.14	2.10	2.49	2.89	2.64	2.75	2.94	3.10	3.20	590 nm absorbance normalized to zero hour (substrate use), 1 hr [2]: 2.10; 590 nm absorbance normalized to zero hour (substrate use), 2 hr [2]: 2.49; 590 nm absorbance normalized to zero hour (substrate use), 3 hr [2]: 2.89; 590 nm absorbance normalized to zero hour (substrate use), 4 hr [2]: 2.64; 590 nm absorbance normalized to zero hour (substrate use), 5 hr [2]: 2.75; 590 nm absorbance normalized to zero hour (substrate use), 6 hr [2]: 2.94; 590 nm absorbance normalized to zero hour (substrate use), 7 hr [2]: 3.10; 590 nm absorbance normalized to zero hour (substrate use), 8 hr [2]: 3.20; 590 nm absorbance normalized to zero hour (substrate use), 9 hr [2]: 3.46; 590 nm absorbance normalized to zero hour (substrate use), 10 hr [2]: 3.46; 590 nm absorbance normalized to zero hour (substrate use), 11 hr [2]: 3.61; 590 nm absorbance normalized to zero hour (substrate use), 9 hr [3]: 3.46; 590 nm absorbance normalized to zero hour (substrate use), 10 hr [3]: 3.46; 590 nm absorbance normalized to zero hour (substrate use), 11 hr [3]: 3.61
